This passage reports EC50 results from patent US20250195521A1 (Revolution Medicines, Inc., priority 2020, published 2025).

Where only a bound is given, the exact number is not on record here.

The subject of one assay is K-Ras G12C (NCI-H358 cells). Description: Potency assay: pERK in NCI-H358 cells. The class given is cell-based, human. The conditions noted are these: Homo sapiens, NCI-H358, 4 h, read-out: pERK EC50 (H358 KRAS G12C). The procedure: The purpose of this assay is to measure the ability of test compounds to inhibit K-Ras in cells. […] This procedure measures a decrease in cellular pERK in response to test compounds. The procedure described below in NCI-H358 cells is applicable to K-Ras G12C.
Note: This protocol may be executed substituting other cell lines to characterize inhibitors of other RAS variants, including, for example, AsPC-1 (K-Ras G12D), Capan-1 (K-Ras G12V), or NCI-H1355 (K-Ras G13C).
NCI-H358 cells were grown and maintained using media and procedures recommended by the ATCC. On the day prior to compound addition, cells were plated in 384-well cell culture plates (40 μl/well) and grown overnight in a 37° C., 5% CO2 incubator. Test compounds were prepared in 10, 3-fold dilutions in DMSO, with a high concentration of 10 mM. On the day of assay, 40 nL of test compound was added to each well of cell culture plate using an Echo550 liquid handler (LabCyte®). Concentrations of test compound were tested in duplicate. After compound addition, cells were incubated 4 hours at 37° C., 5% CO2. Following incubation, culture medium was removed and cells were washed once with phosphate buffered saline.
In some experiments, cellular pERK level was determined using the AlphaLISA SureFire Ultra p-ERK1/2 Assay Kit (PerkinElmer). Cells were lysed in 25 μL lysis buffer, with shaking at 600 RPM at room temperature. […] After a 2-hour incubation in the dark, 5 μL donor mix was added, plate was sealed, and incubated 2 hours at room temperature. Signal was read on an Envision plate reader (PerkinElmer) using standard AlphaLISA settings. Analysis of raw data was carried out in Excel (Microsoft) and Prism (GraphPad). Signal was plotted vs. the decadal logarithm of compound concentration, and IC50 was determined by fitting a 4-parameter sigmoidal concentration response model.
In other experiments, cellular pERK was determined by In-Cell Western. […] Fixed cells were washed 4 times for 5 minutes with TBS containing 0.1% Triton X-100 (TBST) and then blocked with 100 μL Odyssey blocking buffer (LI-COR) for 60 minutes at room temperature. Primary antibody (PERK, CST-4370, Cell Signaling Technology) was diluted 1:200 in blocking buffer, and 50 μL was added to each well and incubated overnight at 4° C. Cells were washed 4 times for 5 minutes with TBST. Secondary antibody (IR-800CW rabbit, LI-COR, diluted 1:800) and DNA stain DRAQ5 (LI-COR, diluted 1:2000) were added and incubated 1-2 hours at room temperature. Cells were washed 4 times for 5 minutes with TBST. Plates were scanned on a Li—COR Odyssey CLx Imager. Analysis of raw data was carried out in Excel (Microsoft) and Prism (GraphPad). Signal was plotted vs. the decadal logarithm of compound concentration, and IC50 was determined by fitting a 4-parameter sigmoidal concentration response model.
As to `C=CC(=O)N1CC[C@H](C(=O)N(C)[C@H](C(=O)N[C@H]2Cc3cc(cc(O)c3F)-c3ccc4c(c3)c(c(-c3c(CCOC)cccc3OC)n4CC)CC(C)(C)COC(=O)[C@@H]3CCCN(N3)C2=O)C(C)C)C1` [Compound A9], the EC50 (commonly the midpoint of the concentration-response curve) was less than 5 µM.
Regarding `CCn1c(-c2cnccc2COC)c2c3cc(ccc31)-c1cc(O)cc(c1)C[C@H](NC(=O)[C@H](C(C)C)N(C)C(=O)[C@H]1CCN(C(=O)OC)C1)C(=O)N1CCC[C@H](N1)C(=O)OCC(C)(C)C2` [Compound A11, methyl (3S)-3-{[(1S)-1-{[(8S,14S)-22-ethyl-4-hydroxy-21-[4-(methoxymethyl)pyridin-3-yl]-18,18-dimethyl-9,15-dioxo-16-oxa-10,22,28-triazapentacyclo [18.5.2.1^2,6.1^10,14.0^23,27]nonacosa-1 (26),2,4,6 (29),20,23 (27),24-heptaen-8-yl]carbamoyl}-2-methylpropyl](methyl)carbamoyl}pyrrolidine-1-carboxylate], the EC50 is less than 5 µM.
Still for that read-out and setting: the value for `C=CC(=O)N1CC[C@H](C(=O)N(C)[C@H](C(=O)N[C@H]2Cc3cc(O)cc(c3)-c3ccc4c(c3)c(c(-c3ncccc3[C@@H](C)OC)n4CC)CC(C)(C)COC(=O)[C@@H]3CCCN(N3)C2=O)C(C)C)C1` [Compound A29] was less than 5 µM; that for `C=CC(=O)N1CC[C@H](C(=O)N(C)[C@H](C(=O)N[C@H]2Cc3cc(OC(=O)N(C)CC(=O)O)cc(c3)-c3ccc4c(c3)c(c(-c3ccccc3CCOC)n4CC)CC(C)(C)COC(=O)[C@@H]3CCCN(N3)C2=O)C(C)C)C1` [Compound A78] was less than 5 µM.

The same assay, now with this note: Homo sapiens; NCI-H358 cells, 4 hours; read-out: pERK EC50 (H358 KRAS G12C).
Consider `CCn1c(-c2cccnc2[C@H](C)OC)c2c3cc(ccc31)-c1cc(O)cc(c1)C[C@H](NC(=O)[C@H](C(C)C)N(C)C(=O)[C@H]1CCC[C@H]1N)C(=O)N1CCC[C@H](N1)C(=O)OCC(C)(C)C2` (atropisomer, axis not shown) [Compound A131], for which the EC50 is less than 5 µM.
The same measure, in the same setting: then `CCn1c(-c2cccnc2[C@H](C)OC)c2c3cc(ccc31)-c1csc(n1)C[C@H](NC(=O)[C@H](C(C)C)N(C)C(=O)N1CC(C(C)(C)OC)C1)C(=O)N1CCC[C@H](N1)C(=O)OCC(C)(C)C2` (atropisomer, axis not shown) [Compound A614], with less than 5 µM.
Still for that read-out and setting: then `CCn1c(-c2cnccc2COC)c2c3cc(ccc31)-c1cc(O)cc(c1)C[C@H](NC(=O)[C@H](C(C)C)N(C)C(=O)[C@H]1CCNC1)C(=O)N1CCC[C@H](N1)C(=O)OCC(C)(C)C2` [Compound A10], with less than 5 µM.
Regarding `C=CC(=O)N1CC[C@H](C(=O)N(C)[C@H](C(=O)N[C@H]2Cc3cc(O)cc(c3)-c3ccc4c(c3)c(c(-c3ccccc3CCOC)n4C(C)(C)C#N)CC(C)(C)COC(=O)[C@@H]3CCCN(N3)C2=O)C(C)C)C1` [Compound A12], the EC50 is less than 5 µM.
Still for that read-out and setting: then `CCn1c(-c2cnccc2COC)c2c3cc(ccc31)-c1cc(O)cc(c1)C[C@H](NC(=O)[C@H](C(C)C)N(C)C(=O)[C@H]1CCN(C)C1)C(=O)N1CCC[C@H](N1)C(=O)OCC(C)(C)C2` [Compound A27, (2S)—N-[(8S,14S)-22-ethyl-4-hydroxy-21-[4-(methoxymethyl)pyridin-3-yl]-18,18-dimethyl-9,15-dioxo-16-oxa-10,22,28-triazapentacyclo [18.5.2.1^2,6.1^10,14.0^23,27]nonacosa-1 (26),2,4,6 (29),20,23 (27),24-heptaen-8-yl]-3-methyl-2-{N-methyl-1-[(3S)-1-methylpyrrolidin-3-yl]formamido}butanamide], with less than 5 µM.
The same measure, in the same setting: then `CCn1c(-c2cccnc2COC)c2c3cc(ccc31)-c1cc(O)cc(c1)C[C@H](NC(=O)[C@H](C(C)C)N(C)C(=O)[C@H]1CCNC1)C(=O)N1CCC[C@H](N1)C(=O)OCC(C)(C)C2` [Compound A32], with less than 5 µM; and `CCn1c(-c2cnccc2COC)c2c3cc(ccc31)-c1cc(O)cc(c1)C[C@H](NC(=O)[C@H](C(C)C)N(C)C(=O)[C@H]1CCN(S(=O)(=O)N3CC(N)C3)C1)C(=O)N1CCC[C@H](N1)C(=O)OCC(C)(C)C2` [Compound A35], with less than 5 µM; and `CCn1c(-c2cnccc2COC)c2c3cc(ccc31)-c1cc(O)cc(c1)C[C@H](NC(=O)[C@H](C(C)C)N(C)C(=O)[C@H]1CCN(S(=O)(=O)N3CC(O)C3)C1)C(=O)N1CCC[C@H](N1)C(=O)OCC(C)(C)C2` [Compound A37, (2S)—N-[(8S,14S)-22-ethyl-4-hydroxy-21-[4-(methoxymethyl)pyridin-3-yl]-18,18-dimethyl-9,15-dioxo-16-oxa-10,22,28-triazapentacyclo [18.5.2.1^2,6.1^10,14.0^23,27]nonacosa-1 (26),2,4,6 (29),20,23 (27),24-heptaen-8-yl]-2-{1-[(3S)-1-[(3-hydroxyazetidin-1-yl)sulfonyl]pyrrolidin-3-yl]-N-methylformamido}-3-methylbutanamide], with less than 5 µM.
The same measure, in the same setting: the value for `CCn1c(-c2cnccc2COC)c2c3cc(ccc31)-c1cc(O)cc(c1)C[C@H](NC(=O)[C@H](C(C)C)N(C)C(=O)CO)C(=O)N1CCC[C@H](N1)C(=O)OCC(C)(C)C2` [Compound A43, (2S)—N-[(8S,14S)-22-ethyl-4-hydroxy-21-[4-(methoxymethyl)pyridin-3-yl]-18,18-dimethyl-9,15-dioxo-16-oxa-10,22,28-triazapentacyclo [18.5.2.1^2,6.1^10,14.0^23,27]nonacosa-1 (26), 2,4,6 (29),20,23 (27),24-heptaen-8-yl]-2-(2-hydroxy-N-methylacetamido)-3-methylbutanamide] was less than 5 µM; that for `CCn1c(-c2cnccc2COC)c2c3cc(ccc31)-c1cc(O)cc(c1)C[C@H](NC(=O)[C@H](C(C)C)N1CCCCC1=O)C(=O)N1CCC[C@H](N1)C(=O)OCC(C)(C)C2` [Compound A44] was less than 5 µM; that for `CCn1c(-c2cnccc2COC)c2c3cc(ccc31)-c1cc(O)cc(c1)C[C@H](NC(=O)[C@H](C(C)C)N(C)S(C)(=O)=O)C(=O)N1CCC[C@H](N1)C(=O)OCC(C)(C)C2` [Compound A57, (2S)—N-[(8S,14S)-22-ethyl-4-hydroxy-21-[4-(methoxymethyl)pyridin-3-yl]-18,18-dimethyl-9,15-dioxo-16-oxa-10,22,28-triazapentacyclo [18.5.2.1^2,6.1^10,14.0^23,27]nonacosa-1 (26),2,4,6 (29),20,23 (27),24-heptaen-8-yl]-3-methyl-2-(N-methylmethanesulfonamido) butanamide] was less than 5 µM.
With `CCn1c(-c2cccnc2[C@H](C)OC)c2c3cc(ccc31)-c1cccc(c1)C[C@H](NC(=O)[C@H](C(C)C)N(C)C(=O)[C@H]1CCN(C(C)=O)C1)C(=O)N1CCC[C@H](N1)C(=O)OCC(C)(C)C2` [Compound A60], the EC50 was less than 5 µM.
Consider `CCn1c(-c2cnccc2COC)c2c3cc(ccc31)-c1cc(O)cc(c1)C[C@H](NC(=O)[C@H]([C@@H](C)OC)N(C)C(C)=O)C(=O)N1CCC[C@H](N1)C(=O)OCC(C)(C)C2` [Compound A76], for which the EC50 was less than 5 µM.
Still for that read-out and setting: then `CCn1c(-c2cnccc2COC)c2c3cc(ccc31)-c1cc(O)cc(c1)C[C@H](NC(=O)[C@H](C(C)C)N(C)C(=O)[C@@H]1CCOC1)C(=O)N1CCC[C@H](N1)C(=O)OCC(C)(C)C2` [Compound A94], with less than 5 µM; and `CCn1c(-c2cnccc2COC)c2c3cc(ccc31)-c1cc(O)cc(c1)C[C@H](NC(=O)[C@H](C(C)C)N(C)C(=O)OC1CN(C)C1)C(=O)N1CCC[C@H](N1)C(=O)OCC(C)(C)C2` [Compound A101], with less than 5 µM; and `CCn1c(-c2cccnc2[C@H](C)OC)c2c3cc(ccc31)-c1cccc(c1)C[C@H](NC(=O)[C@H](C(C)C)N(C)C(=O)[C@H]1CCN(C(=O)CN)C1)C(=O)N1CCC[C@H](N1)C(=O)OCC(C)(C)C2` [Compound A105], with less than 5 µM.
`CCn1c(-c2cccnc2[C@H](C)OC)c2c3cc(ccc31)-c1csc(n1)C[C@H](NC(=O)[C@H](C(C)C)N(C)C(=O)[C@H]1CCN(C)C1)C(=O)N1CCC[C@H](N1)C(=O)OCC(C)(C)C2` [Compound A108]: the EC50 was less than 5 µM.

Staying with this assay, now noted: read-out: pERK EC50 (H358 KRAS G12C); NCI-H358 cells, 4 hours.
For the molecule `C=CC(=O)N1CC[C@H](C(=O)N(C)[C@H](C(=O)N[C@H]2Cc3cc(N)cc(c3)-c3ccc4c(c3)c(c(-c3ccccc3COC)n4CC)CC(C)(C)COC(=O)[C@@H]3CCCN(N3)C2=O)C(C)C)C1` [Compound A42], the EC50 is less than 5 µM.
